According to article PMC8770514, “Induction of CTH expression in response to amino acid starvation confers resistance to anti-LAT1 therapy in MDA-MB-231 cells” (Scientific Reports, 2022):

Biological target: T1, L type amino acid transporter 1 (LAT1) (Homo sapiens, UniProt Q01650)
T1 construct: gene SLC7A5; with 4F2 heavy chain (4F2hc)
Assay: inhibition of […] L-leucine uptake ([…] min, […] °C) in MDA-MB-231 cells (endogenous LAT1); […] in T-47D cells
Type: cell-based

T1 sequence (Q01650 whole entry): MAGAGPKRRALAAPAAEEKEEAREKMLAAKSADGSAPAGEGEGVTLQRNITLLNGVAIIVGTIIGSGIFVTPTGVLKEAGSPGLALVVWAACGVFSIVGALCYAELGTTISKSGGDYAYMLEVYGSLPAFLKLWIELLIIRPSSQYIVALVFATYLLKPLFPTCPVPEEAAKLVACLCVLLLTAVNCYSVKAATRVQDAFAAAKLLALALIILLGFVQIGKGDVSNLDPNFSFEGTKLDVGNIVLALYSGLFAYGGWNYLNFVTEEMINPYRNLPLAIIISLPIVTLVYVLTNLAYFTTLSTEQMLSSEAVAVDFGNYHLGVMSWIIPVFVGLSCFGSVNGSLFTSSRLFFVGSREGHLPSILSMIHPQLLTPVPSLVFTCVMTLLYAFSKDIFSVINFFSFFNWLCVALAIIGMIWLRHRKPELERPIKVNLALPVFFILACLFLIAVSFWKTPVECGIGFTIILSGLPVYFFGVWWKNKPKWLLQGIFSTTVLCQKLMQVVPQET
T1 sequence (P08195 103-630 partner): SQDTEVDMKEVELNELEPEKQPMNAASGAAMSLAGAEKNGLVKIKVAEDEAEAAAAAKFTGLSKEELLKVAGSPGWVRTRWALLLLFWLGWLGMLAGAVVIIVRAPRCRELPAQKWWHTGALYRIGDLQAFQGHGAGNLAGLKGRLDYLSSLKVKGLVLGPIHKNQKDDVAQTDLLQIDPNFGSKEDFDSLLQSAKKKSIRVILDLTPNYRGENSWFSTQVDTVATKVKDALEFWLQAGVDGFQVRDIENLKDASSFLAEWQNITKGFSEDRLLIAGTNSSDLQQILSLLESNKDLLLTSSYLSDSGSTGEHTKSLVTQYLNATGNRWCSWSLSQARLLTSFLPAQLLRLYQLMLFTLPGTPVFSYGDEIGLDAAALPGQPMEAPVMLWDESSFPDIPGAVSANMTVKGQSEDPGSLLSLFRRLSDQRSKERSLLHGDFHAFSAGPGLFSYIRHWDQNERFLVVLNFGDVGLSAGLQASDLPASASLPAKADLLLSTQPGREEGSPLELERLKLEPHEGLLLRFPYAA

IC50: 60 ± 20 nM
SMILES: Nc1cc(COc2c(Cl)cc(C[C@H](N)C(=O)O)cc2Cl)c2oc(-c3ccccc3)nc2c1 [JPH203, (S)-2-amino-3-(4-((5-amino-2-phenylbenzo[d]oxazol-7-yl)methoxy)-3,5-dichlorophenyl)-propanoic acid]
